Measured values reported in US20250214991A1 (Oncopia Therapeutics, Inc. d/b/a/ SK Life Science Labs, priority 2022, published 2025).

Legend:
IKZF2 [1] = biological target: T1, IKZF2 (Homo sapiens (Human), UniProt Q96SW2+Q9UKS7); test: In vitro IKZF2 FACS Assay in Jurkat cells; type: cell-based; conditions: 24 hrs; for DC50: half maximal degradation concentration; for Dmax: maximal degradation percentage
Method: In vitro IKZF2 FACS Assay
DC50, A: <1 nM; B: 1-10 nM; C: 10-100 nM; D: 100-1000 nM; E: >1000 nM. Dmax, A: >80%; B: 60-80%; C: 40-60%; D: 20-40%; E: <20%.

IKZF1 = IKZF1 (Homo sapiens (Human), UniProt Q13422+Q96SW2); test: In vitro IKZF1 HiBit Assay (HEK293T Flp-in-HiBiT-IKZF1 stable cell line); type: cell-based; conditions: HEK293T Flp-in-HiBiT-IKZF1 stable cell line, 6 hrs incubation; for DC50: read-out: IKZF1 HiBit DC50; for Dmax: HEK-293T, read-out: IKZF1 HiBit Dmax (%)
Outline: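 Degradation was measured as loss of luminescence from the HiBiT-IKZF1 tag after 6 h compound treatment, with 0.1% final DMSO, in stable HEK293T Flp-in cells. Values were normalized to DMSO, giving the 50% degradation concentration and the maximal degradation range.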

CRBN/DDB1 = CRBN/DDB1 (Homo sapiens (Human), UniProt Q96SW2); test: IC50 measurements for binding to CRBN/DDB1 (HTRF); conditions: His tagged CRBN+DDB, Cy5-labeled Thalidomide probe, one hour
Outline: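 Serially diluted compounds compete with a Cy5-labeled thalidomide tracer (60 nM) for His-tagged CRBN-DDB1 (2 nM), detected via anti-6His Tb cryptate (0.4 nM); buffer HEPES pH 7.5 with TCEP, Brij-35, NaCl, BSA. One-hour room-temperature incubation, HTRF signal read, IC50 by four-parameter curve.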

IKZF2 [2] = biological target: T1, IKZF2; test: In vitro IKZF2 HiBit Assay (HEK293T Flp-in-HiBiT cells); type: cell-based; conditions: HEK293T Flp-in-HiBiT cells, 6 hrs incubation; for DC50: read-out: IKZF2 HiBit DC50; for Dmax: HEK-293T, read-out: IKZF2 HiBit Dmax (%)
Outline: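 Remaining tagged Helios was read as lytic HiBiT/LgBiT luminescence normalized to DMSO, yielding binned DC50 and Dmax values. Treatment ran 6 h, with compounds at 11 three-fold doses diluted from 1 mM and 0.1% final DMSO. The cells were HEK293T Flp-in with CRISPR knock-in of HiBiT at the IKZF2 N-terminus.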

Chain of IKZF1 (Q13422 whole entry): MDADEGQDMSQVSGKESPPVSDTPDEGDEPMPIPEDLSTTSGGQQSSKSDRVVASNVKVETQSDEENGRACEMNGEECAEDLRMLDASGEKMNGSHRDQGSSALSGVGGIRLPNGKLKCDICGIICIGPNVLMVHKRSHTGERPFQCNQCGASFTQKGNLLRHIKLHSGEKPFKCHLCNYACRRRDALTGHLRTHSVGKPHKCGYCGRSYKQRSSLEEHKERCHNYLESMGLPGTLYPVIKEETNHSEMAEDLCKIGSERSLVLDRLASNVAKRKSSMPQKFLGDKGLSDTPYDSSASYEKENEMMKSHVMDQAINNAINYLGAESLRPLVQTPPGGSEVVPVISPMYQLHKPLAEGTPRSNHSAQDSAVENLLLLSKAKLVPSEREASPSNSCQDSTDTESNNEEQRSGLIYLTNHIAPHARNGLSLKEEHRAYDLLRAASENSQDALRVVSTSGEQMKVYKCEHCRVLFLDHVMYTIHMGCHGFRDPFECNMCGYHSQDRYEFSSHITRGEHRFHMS
Chain of IKZF1 (Q96SW2 whole entry): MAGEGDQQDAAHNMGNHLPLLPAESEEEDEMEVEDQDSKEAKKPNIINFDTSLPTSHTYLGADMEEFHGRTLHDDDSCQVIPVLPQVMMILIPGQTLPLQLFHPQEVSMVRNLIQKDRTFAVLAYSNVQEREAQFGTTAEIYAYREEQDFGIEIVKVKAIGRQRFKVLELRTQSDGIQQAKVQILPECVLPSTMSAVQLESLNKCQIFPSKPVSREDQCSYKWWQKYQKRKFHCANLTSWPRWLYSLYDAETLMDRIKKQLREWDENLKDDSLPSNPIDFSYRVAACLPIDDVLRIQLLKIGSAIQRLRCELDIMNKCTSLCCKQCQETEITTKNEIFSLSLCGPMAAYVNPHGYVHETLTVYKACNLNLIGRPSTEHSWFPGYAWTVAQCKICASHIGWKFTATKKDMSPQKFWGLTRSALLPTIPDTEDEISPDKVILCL
Chain of IKZF1 (Q16531 2-1140 partner): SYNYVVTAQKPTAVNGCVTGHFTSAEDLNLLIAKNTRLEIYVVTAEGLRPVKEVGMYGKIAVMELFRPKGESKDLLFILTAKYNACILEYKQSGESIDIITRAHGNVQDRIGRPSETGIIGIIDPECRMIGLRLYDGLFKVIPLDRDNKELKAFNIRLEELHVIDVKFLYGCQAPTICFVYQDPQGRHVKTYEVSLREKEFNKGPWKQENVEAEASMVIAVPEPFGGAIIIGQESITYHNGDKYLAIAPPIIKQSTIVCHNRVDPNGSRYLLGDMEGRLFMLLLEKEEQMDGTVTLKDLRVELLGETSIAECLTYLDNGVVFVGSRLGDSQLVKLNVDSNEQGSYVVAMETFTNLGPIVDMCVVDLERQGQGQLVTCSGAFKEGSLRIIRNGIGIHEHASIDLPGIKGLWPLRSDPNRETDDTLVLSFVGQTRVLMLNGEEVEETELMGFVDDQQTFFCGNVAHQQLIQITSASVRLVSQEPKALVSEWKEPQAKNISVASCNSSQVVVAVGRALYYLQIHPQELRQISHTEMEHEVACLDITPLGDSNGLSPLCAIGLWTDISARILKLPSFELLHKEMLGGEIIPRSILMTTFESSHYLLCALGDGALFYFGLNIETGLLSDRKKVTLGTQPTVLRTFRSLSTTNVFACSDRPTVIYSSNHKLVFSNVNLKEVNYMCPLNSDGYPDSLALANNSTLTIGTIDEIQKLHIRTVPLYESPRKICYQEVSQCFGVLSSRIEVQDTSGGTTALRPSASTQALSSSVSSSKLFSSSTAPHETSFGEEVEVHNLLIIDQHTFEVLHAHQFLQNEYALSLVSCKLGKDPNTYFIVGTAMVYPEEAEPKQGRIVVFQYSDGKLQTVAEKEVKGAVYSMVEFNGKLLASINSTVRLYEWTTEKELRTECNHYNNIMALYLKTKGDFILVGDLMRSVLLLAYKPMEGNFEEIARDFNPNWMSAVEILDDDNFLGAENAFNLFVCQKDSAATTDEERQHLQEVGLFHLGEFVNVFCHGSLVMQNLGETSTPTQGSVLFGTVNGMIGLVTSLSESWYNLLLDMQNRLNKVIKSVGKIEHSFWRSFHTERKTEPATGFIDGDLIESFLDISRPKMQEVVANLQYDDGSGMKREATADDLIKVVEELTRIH
T1 sequence (Q9UKS7 whole entry): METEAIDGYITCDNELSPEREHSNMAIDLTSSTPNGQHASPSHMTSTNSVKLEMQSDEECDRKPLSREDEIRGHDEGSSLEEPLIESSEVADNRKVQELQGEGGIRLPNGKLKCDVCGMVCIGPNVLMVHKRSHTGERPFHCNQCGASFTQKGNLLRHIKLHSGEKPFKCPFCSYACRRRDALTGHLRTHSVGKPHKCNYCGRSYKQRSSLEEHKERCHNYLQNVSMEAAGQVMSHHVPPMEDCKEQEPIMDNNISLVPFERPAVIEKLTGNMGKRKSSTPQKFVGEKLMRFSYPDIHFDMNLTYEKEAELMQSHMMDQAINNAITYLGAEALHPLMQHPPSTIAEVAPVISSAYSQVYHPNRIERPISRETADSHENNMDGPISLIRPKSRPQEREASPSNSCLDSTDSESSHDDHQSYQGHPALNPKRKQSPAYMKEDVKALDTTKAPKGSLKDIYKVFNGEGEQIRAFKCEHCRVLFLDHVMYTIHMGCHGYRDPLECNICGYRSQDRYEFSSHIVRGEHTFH
T1 sequence (Q96SW2 whole entry): as the sequence (Q96SW2 whole entry) above
T1 sequence (Q16531 2-1140 partner): as the sequence (Q16531 2-1140 partner) above
Chain of CRBN/DDB1 (Q96SW2 whole entry, species assumed): as the sequence (Q96SW2 whole entry) above
Chain of CRBN/DDB1 (Q16531 whole entry partner, species assumed): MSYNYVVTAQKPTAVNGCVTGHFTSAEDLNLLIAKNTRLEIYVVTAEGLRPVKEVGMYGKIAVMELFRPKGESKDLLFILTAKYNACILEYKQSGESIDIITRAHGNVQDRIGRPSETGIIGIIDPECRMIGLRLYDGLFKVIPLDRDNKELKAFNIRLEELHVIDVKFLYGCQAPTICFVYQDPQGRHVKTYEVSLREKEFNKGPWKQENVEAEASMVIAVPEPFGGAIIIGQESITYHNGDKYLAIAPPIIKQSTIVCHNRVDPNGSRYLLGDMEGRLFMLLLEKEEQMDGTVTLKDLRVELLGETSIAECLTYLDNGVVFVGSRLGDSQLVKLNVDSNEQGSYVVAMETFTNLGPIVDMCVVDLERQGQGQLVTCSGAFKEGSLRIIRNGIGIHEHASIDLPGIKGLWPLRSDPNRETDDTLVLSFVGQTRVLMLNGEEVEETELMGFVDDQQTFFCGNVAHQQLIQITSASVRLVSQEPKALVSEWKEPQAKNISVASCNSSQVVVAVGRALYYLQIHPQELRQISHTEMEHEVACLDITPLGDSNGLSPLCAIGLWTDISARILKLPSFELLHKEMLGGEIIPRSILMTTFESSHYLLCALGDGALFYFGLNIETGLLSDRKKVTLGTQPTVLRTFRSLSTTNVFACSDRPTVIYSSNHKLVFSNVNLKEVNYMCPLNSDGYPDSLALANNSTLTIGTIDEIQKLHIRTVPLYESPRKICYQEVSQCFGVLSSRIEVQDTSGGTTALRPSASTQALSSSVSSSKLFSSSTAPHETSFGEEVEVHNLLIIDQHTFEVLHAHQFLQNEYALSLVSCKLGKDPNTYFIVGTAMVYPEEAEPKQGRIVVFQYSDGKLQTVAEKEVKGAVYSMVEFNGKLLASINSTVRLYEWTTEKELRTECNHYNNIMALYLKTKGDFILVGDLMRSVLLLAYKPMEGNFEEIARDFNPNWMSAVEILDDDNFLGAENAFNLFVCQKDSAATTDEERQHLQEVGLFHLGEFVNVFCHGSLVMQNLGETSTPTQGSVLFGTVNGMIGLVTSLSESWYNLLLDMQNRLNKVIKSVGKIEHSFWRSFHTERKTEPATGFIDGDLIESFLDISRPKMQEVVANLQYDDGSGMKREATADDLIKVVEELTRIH

Row | SMILES | DC50 (IKZF2 [1]) [µM] | Dmax (IKZF2 [1]) [%] | DC50 (IKZF1) [µM] | Dmax (IKZF1) [%] | IC50 (CRBN/DDB1) [µM] | DC50 (IKZF2 [2]) [µM] | Dmax (IKZF2 [2]) [%]
1 | O=C1CCC(N2Cc3cc(-c4cc(CN5CCCC5)cc5cncn45)ccc3C2=O)C(=O)N1 (stereo not shown) [Example 1, 3-(1-oxo-5-(7-(pyrrolidin-1-ylmethyl)imidazo[1,5-a]pyridin-5-yl)isoindolin-2-yl) piperidine-2,6-dione] | 0.01 to 0.1 | 60 to 80 | > 10 | < 20 | 0.1 to 0.5 | 0.01 to 0.1 | 60 to 80
2 | O=C1CCC(N2Cc3cc(-c4cc(CN5CCCCC5)cc5cncn45)ccc3C2=O)C(=O)N1 (stereo not shown) [Example 3, 3-(1-oxo-5-(7-(piperidin-1-ylmethyl)imidazo[1,5-a]pyridin-5-yl)isoindolin-2-yl) piperidine-2,6-dione] | 0.01 to 0.1 | 40 to 60 | > 10 | < 20 | 0.1 to 0.5 | 0.01 to 0.1 | 60 to 80
3 | CC1CCN(Cc2cc(-c3ccc4c(c3)CN(C3CCC(=O)NC3=O)C4=O)n3cncc3c2)C1 (stereo not shown) [Example 6, 3-(5-(7-((3-methylpyrrolidin-1-yl)methyl)imidazo[1,5-a]pyridin-5-yl)-1-oxoisoindolin-2-yl) piperidine-2,6-dione] | 0.01 to 0.1 | 60 to 80 | > 10 | < 20 | 0.1 to 0.5 | 0.01 to 0.1 | 60 to 80
4 | O=C1CCC(N2Cc3cc(-c4cc(CN5CCC6(CC5)CC6)cc5cncn45)ccc3C2=O)C(=O)N1 (stereo not shown) [Example 8, 3-(5-(7-((6-azaspiro[2.5]octan-6-yl)methyl)imidazo[1,5-a]pyridin-5-yl)-1-oxoisoindolin-2-yl) piperidine-2,6-dione] | 0.01 to 0.1 | 40 to 60 | > 10 | < 20 | 1 to 5 | 0.01 to 0.1 | 40 to 60
5 | O=C1CCC(N2Cc3cc(-c4cc(CN5CCC6(CC5)COC6)cc5cncn45)ccc3C2=O)C(=O)N1 (stereo not shown) [Example 10, 3-(5-(7-((2-oxa-7-azaspiro[3.5]nonan-7-yl)methyl)imidazo[1,5-a]pyridin-5-yl)-1-oxoisoindolin-2-yl) piperidine-2,6-dione] | 0.001 to 0.01 | 40 to 60 | > 10 | < 20 | 0.5 to 1 | 1 to 10 | 40 to 60
6 | CC(NCc1cc(-c2ccc3c(c2)CN(C2CCC(=O)NC2=O)C3=O)n2cncc2c1)c1ccccc1Cl (stereo not shown) [Example 23, 3-(5-(7-(((1-(2-chlorophenyl)ethyl)amino)methyl)imidazo[1,5-a]pyridin-5-yl)-1-oxoisoindolin-2-yl) piperidine-2,6-dione] | 0.01 to 0.1 | 20 to 40 |  |  | 1 to 5 |  | 
7 | O=C1CCC(N2Cc3cc(-c4cc(CNCc5cccc6ccccc56)cc5cncn45)ccc3C2=O)C(=O)N1 (stereo not shown) [Example 24, 3-(5-(7-(((naphthalen-1-ylmethyl)amino)methyl)imidazo[1,5-a]pyridin-5-yl)-1-oxoisoindolin-2-yl) piperidine-2,6-dione] | 0.01 to 0.1 | 20 to 40 |  |  | 1 to 5 |  | 
8 | Cn1ccc2cccc(CNCc3cc(-c4ccc5c(c4)CN(C4CCC(=O)NC4=O)C5=O)n4cncc4c3)c21 (stereo not shown) [Example 25] | > 1 | < 20 |  |  | 0.1 to 0.5 |  | 
9 | O=C1CCC(N2Cc3c(ccc(-c4cc(CN5CCCC5)cc5cncn45)c3F)C2=O)C(=O)N1 (stereo not shown) [Example 27, 3-(4-fluoro-1-oxo-5-(7-(pyrrolidin-1-ylmethyl)imidazo[1,5-a]pyridin-5-yl)isoindolin-2-yl) piperidine-2,6-dione] | 0.01 to 0.1 | 40 to 60 |  |  | 0.5 to 1 |  | 
10 | COc1c(-c2cc(CN3CCCC3)cc3cncn23)ccc2c1CN(C1CCC(=O)NC1=O)C2=O (stereo not shown) [Example 31, 3-(4-methoxy-1-oxo-5-(7-(pyrrolidin-1-ylmethyl)imidazo[1,5-a]pyridin-5-yl)isoindolin-2-yl) piperidine-2,6-dione] | > 1 | < 20 |  |  | 0.1 to 0.5 |  | 
11 | Cn1cnc2c(-c3ccc4c(c3)CN(C3CCC(=O)NC3=O)C4=O)cc(CNCCc3ccccc3Cl)cc21 (stereo not shown) [Example 51, 3-(5-(6-(((2-chlorophenethyl)amino)methyl)-1-methyl-1H-benzo[d]imidazol-4-yl)-1-oxoisoindolin-2-yl) piperidine-2,6-dione] | > 1 | 20 to 40 |  |  | 0.1 to 0.5 |  | 
12 | O=C1CCC(N2Cc3cc(-c4ncc5cc(CN6CCCC6)ccn45)ccc3C2=O)C(=O)N1 (stereo not shown) [Example 52, 3-(1-oxo-5-(7-(pyrrolidin-1-ylmethyl)imidazo[1,5-a]pyridin-3-yl)isoindolin-2-yl) piperidine-2,6-dione] | 0.01 to 0.1 | 40 to 60 | > 10 | < 20 | 0.5 to 1 | 0.001 to 0.01 | 60 to 80
13 | O=C1CCC(N2Cc3cc(-c4ncc5ccc(CN6CCCC6)cn45)ccc3C2=O)C(=O)N1 (stereo not shown) [Example 53, 3-(1-oxo-5-(6-(pyrrolidin-1-ylmethyl)imidazo[1,5-a]pyridin-3-yl)isoindolin-2-yl) piperidine-2,6-dione] | > 1 | 20 to 40 |  |  | 5 to 10 |  | 
14 | O=C1CCC(N2Cc3cc(-c4ccc(CN5CCCC5)c5cncn45)ccc3C2=O)C(=O)N1 (stereo not shown) [Example 54, 3-(1-oxo-5-(8-(pyrrolidin-1-ylmethyl)imidazo[1,5-a]pyridin-5-yl)isoindolin-2-yl) piperidine-2,6-dione] | < 0.001 | > 80 | > 10 | < 20 | 1 to 5 | 1 to 10 | < 20
15 | Cn1ccc2c(CN3CCCC3)cc(-c3ccc4c(c3)CN(C3CCC(=O)NC3=O)C4=O)nc21 (stereo not shown) [Example 55, 3-(5-(1-methyl-4-(pyrrolidin-1-ylmethyl)-1H-pyrrolo[2,3-b]pyridin-6-yl)-1-oxoisoindolin-2-yl) piperidine-2,6-dione] | < 0.001 | > 80 | > 10 | 20 to 40 | 0.1 to 0.5 | < 0.001 | > 80
16 | Cn1ccc2c(CN3CCC3)cc(-c3ccc4c(c3)CN(C3CCC(=O)NC3=O)C4=O)nc21 (stereo not shown) [Example 56, 3-(5-(4-(azetidin-1-ylmethyl)-1-methyl-1H-pyrrolo[2,3-b]pyridin-6-yl)-1-oxoisoindolin-2-yl) piperidine-2,6-dione] | 0.001 to 0.01 | 60 to 80 | > 10 | 20 to 40 | < 0.1 | < 0.001 | > 80
17 | O=C1CCC(N2Cc3cc(-c4cc(CN5CCCC5)c5cn[nH]c5n4)ccc3C2=O)C(=O)N1 (stereo not shown) [Example 105, 3-(1-oxo-5-(4-(pyrrolidin-1-ylmethyl)-1H-pyrazolo[3,4-b]pyridin-6-yl)isoindolin-2-yl) piperidine-2,6-dione] | 0.001 to 0.01 | > 80 | 1 to 10 | 20 to 40 | 0.5 to 1 | 0.001 to 0.01 | > 80
18 | O=C1CCC(N2Cc3cc(-c4cc(CN5CCC(F)CC5)c5cc[nH]c5n4)ccc3C2=O)C(=O)N1 (stereo not shown) [Example 116, 3-(5-(4-((4-fluoropiperidin-1-yl)methyl)-1H-pyrrolo[2,3-b]pyridin-6-yl)-1-oxoisoindolin-2-yl) piperidine-2,6-dione] | 0.001 to 0.01 | > 80 | 0.001 to 0.01 | 20 to 40 | 0.1 to 0.5 | < 0.001 | > 80
19 | O=C1CCC(N2Cc3cc(-c4cc(CN5CC(F)C5)c5cc[nH]c5n4)ccc3C2=O)C(=O)N1 (stereo not shown) [Example 117, 3-(5-(4-((3-fluoroazetidin-1-yl)methyl)-1H-pyrrolo[2,3-b]pyridin-6-yl)-1-oxoisoindolin-2-yl) piperidine-2,6-dione] | 0.001 to 0.01 | > 80 | > 10 | < 20 | 0.1 to 0.5 | 0.001 to 0.01 | > 80
20 | O=C1CCC(N2Cc3cc(-c4cc(CN5CCCC5)c5ccn(C6CC6)c5n4)ccc3C2=O)C(=O)N1 (stereo not shown) [Example 119, 3-(5-(1-cyclopropyl-4-(pyrrolidin-1-ylmethyl)-1H-pyrrolo[2,3-b]pyridin-6-yl)-1-oxoisoindolin-2-yl) piperidine-2,6-dione] | 0.001 to 0.01 | > 80 | 1 to 10 | 20 to 40 | 1 to 5 | < 0.001 | > 80
